# Experiment: Particle size (mean/median diameter, D50) before and after coating
# Assay type: physicochemical
# Source text: On FIG. 1, the distribution of the particles before and after coating has been represented. As shown in this figure, the set of coated particles has the same distribution as that of the uncoated particles, showing not only that the particles were evenly coated, but also that the amount of coating is less. Thus, it is observed that the mean diameter of the particles before coating is equal to 176 micrometers, while the mean diameter of the coated particles is equal to 180 micrometers. […] FIG. 2 represents in parallel the distribution of the particles before and after coating. As shown in this figure, the set of coated particles has the same distribution as those of the uncoated particles, showing not only that the particles were evenly coated, but also that the amount of coating is less. Thus, it is observed that the mean diameter of the particles before coating is equal to 60 micrometers, while the mean diameter of the coated particles is equal to 75 micrometers. The table below represents the mean size of the ibuprofen particles (D50) before and after coating. FIG. 5 represents in parallel the distribution of the particles before and after coating.
structure (smiles),measurement,setting,value
"CC(=O)Nc1ccc(O)cc1 [compound 99292402, Paracetamol]",Median (D50) particle size,"Example 4: paracetamol with Precirol ATO 5, theoretical 6% by mass",326.1 μm
CC(C)Cc1ccc(C(C)C(=O)O)cc1 (stereo not drawn) [ibuprofen],mean diameter of the particles,"Example 1: ibuprofen before and after coating with PRECIROL, coating 7% by weight",176 micrometers
"CC(C)Cc1ccc(C(C)C(=O)O)cc1 (stereo not drawn) [5200I1014, ibuprofen]",Mean (D50) size of the ibuprofen particles,Example 2: ibuprofen with PRECIROL in the proportion of 15%,130.0 μm
